Entries after “also recorded” stand apart in the source; their conditions may differ.
Key:
[1] = system: wild-type staphylococci, strains SM317 and SM329; format: cell-based, S. aureus
[2] = system: sorting reaction (sortase cleavage of Seb-Spa490-524 P2 precursor at the LPXTG motif); format: cell-based, S. aureus OS2
SrtADN [3] = biological target: T1, SrtADN (Staphylococcus aureus, UniProt Q2FV99); format: biochemical, S. aureus; conditions: absence of peptidoglycan substrate
From the text: The N-terminal membrane anchor segment of […] (residues 2-25) were replaced with a six-histidine tag ([…]). In the absence of the peptidoglycan substrate, SrtA DN catalyzes peptide bond hydrolysis and cleaves LPETG peptide, presumably between the threonine and the glycine (Ton-That et al., 2000).

[4] = system: S. aureus OS2 (pSeb-Spa490-524); format: cell-based
sortase = sortase (Staphylococcus aureus, UniProt Q2FV99); format: biochemical; conditions: pre-incubation of staphylococcal extracts with 5 mM MTSET
sortase, sequence (Q2FV99 whole entry): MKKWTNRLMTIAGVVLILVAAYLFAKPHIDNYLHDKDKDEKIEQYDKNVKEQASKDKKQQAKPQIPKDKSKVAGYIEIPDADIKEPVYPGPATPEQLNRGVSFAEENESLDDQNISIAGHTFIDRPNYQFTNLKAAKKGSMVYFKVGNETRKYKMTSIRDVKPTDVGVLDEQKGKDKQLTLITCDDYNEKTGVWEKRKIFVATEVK

SrtADN [5] = biological target: T1, SrtADN; format: biochemical, S. aureus; conditions: 5 mM MTSET or 5 mM pHMB, 5 μM SrtADN
[6] = system: cell wall sorting reaction (surface protein anchoring); format: cell-based, S. aureus OS2
cell wall synthesis = format: cell-based, staphylococci (S. aureus OS2)
staphylococci = format: cell-based, S. aureus OS2

T1 sequence (Q2FV99 26-206): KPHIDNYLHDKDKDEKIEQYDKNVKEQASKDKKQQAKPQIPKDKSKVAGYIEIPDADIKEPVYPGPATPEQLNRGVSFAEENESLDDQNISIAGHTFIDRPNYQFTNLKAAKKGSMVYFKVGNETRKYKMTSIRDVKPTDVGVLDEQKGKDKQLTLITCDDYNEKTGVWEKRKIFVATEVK

lysostaphin
growth inhibition by lysostaphin [1]: inhibited growth of wild-type staphylococci

OCCS [2-mercaptoethanol]
interference with cleavage of sorting signals at the LPXTG motif / cell wall sorting (in words) [2]: did not affect the sorting reaction

methylmethane thiosulfonate
inhibition of LPETG peptide cleavage (peptide bond hydrolysis) (SrtADN [3]): inhibited

CS(=O)(=O)SCCS(=O)(=O)O [(2-sulfonatoethyl)methanethiosulfonate]
interference with cleavage of sorting signals at the LPXTG motif / cell wall sorting (in words) [2]: interfered with sorting albeit not as effectively as MTSET

NC(=O)CI [iodoacetamide]
interference with cleavage of sorting signals at the LPXTG motif / cell wall sorting (in words) [2]: did not

O[C@H](CS)[C@H](O)CS (racemic) [dithiothreitol (DTT), dithiothreitol]
interference with cleavage of sorting signals at the LPXTG motif / cell wall sorting (in words) [2]: did not affect the sorting reaction

C[N+](C)(C)CCSS(C)(=O)=O [[2-(trimethylammonium)ethyl]methanethiosulfonate]
interference with cleavage of sorting signals at the LPXTG motif / cell wall sorting (in words) [2]: interfered with the cleavage of sorting signals at the LPXTG motif | incorporation of [35S]methionine by staphylococci [4]: prevented incorporation | protein export (Sec-dependent export of P1 precursor) [4]: remained unaltered | inhibition of LPXTG peptide cleavage (sortase): inhibited | inhibition of LPXTG peptide cleavage (SrtADN [5]): inhibited; also recorded: abolished all enzymatic activity

penicillin
[P2]/[M] [6]: 0.10 ± 0.01 | effect on rate of cell wall sorting (P2 precursor accumulation), in words [6]: did not alter the rate of cell wall sorting | fold inhibition of cell wall synthesis (cell wall synthesis): 3.3 fold | growth rate of staphylococci (staphylococci): reduced the growth rate

p-hydroxymercuribenzoic acid [p-hydroxymercuribenzoic acid (pHMB)]
interference with cleavage of sorting signals at the LPXTG motif / cell wall sorting (in words) [2]: displayed an inhibitory effect | inhibition of LPXTG peptide cleavage (SrtADN [5]): inhibited

moenomycin
[P2]/[M] [6]: 0.24 ± 0.04 | effect on rate of cell wall sorting (P2 precursor accumulation), in words [6]: similar, albeit weaker effect | fold inhibition of cell wall synthesis (cell wall synthesis): 1.6 fold | growth rate of staphylococci (staphylococci): reduced the growth rate

CN[C@H](CC(C)C)C(=O)N[C@H]1C(=O)N[C@@H](CC(N)=O)C(=O)N[C@H]2C(=O)N[C@H]3C(=O)N[C@H](C(=O)N[C@H](C(=O)O)c4cc(O)cc(O)c4-c4cc3ccc4O)[C@H](O)c3ccc(c(Cl)c3)Oc3cc2cc(c3O[C@@H]2O[C@H](CO)[C@@H](O)[C@H](O)[C@H]2O[C@H]2C[C@](C)(N)[C@H](O)[C@H](C)O2)Oc2ccc(cc2Cl)[C@H]1O [vancomycin]
[P2]/[M] [6]: 0.47 ± 0.04 | effect on rate of cell wall sorting (P2 precursor accumulation), in words [6]: led to a steady accumulation of P2 precursor | fold inhibition of cell wall synthesis (cell wall synthesis): 9.5 fold | inhibition of cell wall synthesis (lysine/leucine ratio) (cell wall synthesis): 20 fold

CCN1C(=O)C=CC1=O [N-ethylmaleimide]
interference with cleavage of sorting signals at the LPXTG motif / cell wall sorting (in words) [2]: did not

O=C(O)CI [iodoacetic acid]
interference with cleavage of sorting signals at the LPXTG motif / cell wall sorting (in words) [2]: did not

Reference: patent US7101692B2 (priority 1999, dated 2006)
